From ChEMBL document CHEMBL1201862, “PubChem BioAssay data set” (2004)
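Assay format: 96-well plates, 48-hour exposure. GI50: concentration for 50% inhibition of growth.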 The source made the active and inactive calls. Rule as the data show it: active = GI50 up to about 1.1 µM and inactive = higher.

Columns and labels:
Assay in all cases: NCI-60 cell line screen, 48 h
[1] = test system: DLD-1
[2] = test system: XF498
[3] = test system: HOP-18
[4] = test system: LXFL 529
[5] = test system: RXF 631

Measured: GI50

O=C(CC1=NCCN1)c1ccccc1
inactive: [1] > 750 µM | [2] > 750 µM | [3] > 649 µM

CC(=O)Oc1ccc(Nn2c3ccccc3c3ccccc32)c(C)c1
inactive: [1] 43.9 µM | [2] 27.7 µM | [3] 16.7 µM | [4] 33.7 µM

NC(CCCCNCc1ccccc1)C(=O)O (stereo not given)
inactive: [5] > 100 µM | [1] > 100 µM | [3] > 100 µM | [4] > 100 µM

CCCCCCCCCCCC(=O)C1=C(O)CCC(O)C1=O (stereo not given)
inactive: [1] 18.2 µM | [2] 10.7 µM | [3] 25.5 µM | [4] 16.6 µM

O=C(O)CCCCCCC[C@H]1S[C@H]1CCCCCCO
inactive: [1] > 100 µM | [2] > 100 µM | [3] > 100 µM

CC(C)CC(N/C=C1/N=C(c2ccccc2)OC1=O)C(=O)O (stereo not given)
inactive: [5] > 100 µM | [1] > 100 µM

O=C(CC1(O)C(=O)Nc2c(Cl)cc(Cl)cc21)c1ccco1 (stereo not given)
inactive: [1] 49.3 µM | [2] 25.1 µM | [3] 55.7 µM | [4] 37.8 µM

c1ccc2c(c1)nc1n2CSC1
inactive: [5] > 100 µM | [1] > 100 µM | [2] > 100 µM | [3] > 100 µM | [4] > 100 µM

CC(=O)C1C(=O)C(=O)N(c2ccc(Cl)cc2C)C1=O (stereo not given)
inactive: [5] > 100 µM | [1] > 100 µM | [3] > 100 µM | [4] > 100 µM

O=C1NC2CCCCCC2C12CCCCC2 (stereo not given)
inactive: [5] > 100 µM | [1] > 100 µM | [2] > 100 µM | [4] > 100 µM

COc1cc(/C=C/C(=O)O)ccc1C(=O)OCc1ccccc1
inactive: [1] > 100 µM | [2] > 100 µM | [3] > 100 µM

N#C/C(=C/c1ccco1)C(=O)c1ccccc1
inactive: [5] > 100 µM | [1] > 100 µM | [2] > 100 µM | [3] > 100 µM | [4] > 100 µM

COc1cc(C2C(C(=O)Nc3ccccc3C)=C(C)NC(C)=C2C(=O)Nc2ccccc2C)ccc1O
inactive: [5] > 100 µM | [1] > 100 µM | [2] 87.5 µM | [3] > 100 µM | [4] > 100 µM

Cc1ccc(S(=O)(=O)N/N=C(/c2nc3ccc([N+](=O)[O-])cc3nc2O)C(O)c2ccc(C(O)/C(=N\NS(=O)(=O)c3ccc(C)cc3)c3nc4ccc([N+](=O)[O-])cc4nc3O)cc2)cc1 (stereo not given)
inactive: [5] 56.5 µM | [1] 33.3 µM | [2] > 100 µM | [4] 21.4 µM

COC(=O)C#CCC1CCCC1C1SCCS1 (stereo not given)
inactive: [5] > 100 µM | [1] 73.5 µM | [2] 41 µM | [3] > 100 µM | [4] 70.1 µM

CS(=O)(=O)N/N=C/CN1C(=O)c2ccccc2C1=O
inactive: [1] > 100 µM | [2] > 100 µM | [3] > 100 µM | [4] > 100 µM

COc1ccc(/C(Cl)=C(\C=O)c2ccc(OC)c(OC)c2)cc1
inactive: [5] 54.3 µM | [2] 22.2 µM | [3] 49.9 µM | [4] 30.4 µM

c1ccc(N/N=C2\NN=C(c3ccccc3)CS2)cc1
inactive: [5] 5.52 µM

Nc1cc(O)c2cc(/N=N/c3ccc(/N=N/c4ccc(/N=N/c5ccc6cc(S(=O)(=O)O)cc(S(=O)(=O)O)c6c5)c5ccccc45)c4cc(S(=O)(=O)O)ccc34)c(S(=O)(=O)O)cc2c1
inactive: [1] > 100 µM | [2] > 100 µM | [3] > 100 µM

COC1O[C@H]2CCN(C(=O)OCc3ccccc3)[C@H]2[C@H]1OCc1ccccc1 (stereo not given in full)
inactive: [1] 48.3 µM | [2] 35.2 µM | [3] > 100 µM | [4] 40.2 µM

COC(=O)C1=C(O)c2cc3c(cc2[C@H](c2cc(OC)c(OC)c(OC)c2)C1C(=O)OC)OCO3 (stereo not given in full)
inactive: [5] > 100 µM | [1] 67 µM | [2] 25.1 µM | [3] 29.2 µM | [4] 56.5 µM
